Structures can show the parent of a compound that is named as a salt.
How the values were obtained:
HldE of E. coli = HldE of E. coli (Escherichia coli, UniProt P76658); assay: Inhibition of the enzymatic activity of HldE-K (luminescent assay on kinase activity); type: biochemical; settings: 3nM HldE, 0.2µM β-heptose-7-phosphate, 0.2µM ATP; 30min pre-incubation
Description: Inhibition of the enzymatic activity of HldE-K (luminescent assay on kinase activity):
The assay buffer "AB" contained 50 mM Hepes pH7.5, 1 mM MnCl2, 25 mM KCl, 0.012% Triton-X100 and 1mm dithiothreitol (DTT) and 0.1µM Myelin basic protein (MBP). The following components were added in a white polystyrene Costar plate up to a final volume of 30µL: 10µL inhibitor dissolved in DMSO/water 50/50, and 20µL HldE of E. coli in AB. After 30min of pre-incubation at room temperature, 30µL of Substrates mix in AB were added in each well to a final volume of 60µL. This reaction mixture was then composed of 3nM HldE, 0.2µM β-heptose-7-phosphate (custom synthesis) and 0.2µM ATP (Sigma) in assay buffer. After 30min of incubation at room temperature, 200µL of the revelation mix were added to a final volume of 260µL, including the following constituents at the respective final concentrations: 5000 light units/ml luciferase (Sigma), 30µM D-luciferin (Sigma), 100µM N-acetylcysteamine (Aldrich). Luminescence intensity was immediately measured on Luminoskan (Thermofischer) and converted into inhibition percentages. For IC50 determinations, the inhibitor was tested at 6 to 10 different concentrations, and the related inhibitions were fitted to a classical Langmuir equilibrium model using XLFIT (IDBS).

GmhA of E. coli = GmhA of E. coli (Escherichia coli, UniProt P63224); assay: Inhibition of the enzymatic activity of GmhA (luminescent assay); type: biochemical; settings: 2nM GmhA, 3µM sedoheptulose-7-phosphate, 3µM ATP, 50nM HldE; 30min pre-incubation
GmhA of E. coli, sequence (P63224 whole entry): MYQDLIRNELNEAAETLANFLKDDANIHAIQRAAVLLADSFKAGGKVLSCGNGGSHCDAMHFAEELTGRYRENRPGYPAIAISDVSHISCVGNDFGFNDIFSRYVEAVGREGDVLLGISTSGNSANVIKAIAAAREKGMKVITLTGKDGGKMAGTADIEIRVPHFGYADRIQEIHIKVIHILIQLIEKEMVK
Description: Inhibition of the enzymatic activity of GmhA (luminescent assay):
The assay buffer "AB" contained 50 mM Hepes pH7.5, 1 mM MnCl2, 25 mM KCl, 0.012% Triton-X100 and 1mm dithiothreitol (DTT) and 0.1µM Myelin basic protein (MBP). The following components were added in a white polystyrene Costar plate up to a final volume of 30µL: 10µL inhibitor dissolved in DMSO/water 50/50, and 20µL GmhA of E. coli in AB. After 30min of pre-incubation at room temperature, 30µL of Substrates mix in AB were added in each well to a final volume of 60µL. This reaction mixture was then composed of 2nM GmhA, 3µM sedoheptulose-7-phosphate (Sigma), 3µM ATP (Sigma) and 50nM HldE of E. coli in assay buffer. After 30min of incubation at room temperature, 100µL of the revelation mix were added to a final volume of 160µL, including the following constituents at the respective final concentrations: 10000 light units/ml luciferase (Sigma), 20µM D-luciferin (Sigma), 100µM N-acetylcysteamine (Aldrich). Luminescence intensity was immediately measured on Luminoskan (Thermofischer) and converted into inhibition percentages. For IC50 determinations, the inhibitor was tested at 6 to 10 different concentrations, and the related inhibitions were fitted to a classical langmuir equilibrium model using XLFIT (IDBS).

E. coli C7 (018:K1:H7) = assay: Killing of the bacteria in culture with compound; type: cell-based; settings: at 1 mM
Description: Bacterial culture: The effect of heptosylation inhibitors on E. coli LPS was assessed as described below. The compounds to be tested were prepared in deionised water/DMSO (50/50) solutions and added (25µL) in sterile culture microtubes. The strain used in this study was E. coli C7 (018:K1:H7). The bacteria were isolated on tryptic soy agar (TSA) over-night. Isolated colonies were cultured in 10ml of Luria-Bertani medium (LB) at 37°C up to an optical density of typically 0.15. These exponentially growing bacteria were finally diluted to 5e5 cfu/ml and added in each well (225µL) for incubation with the compounds at 37°C for approximately 5 hours, up to an optical density of ≈0.2-0.4. Some test compounds e.g. phospho-sugars required Glucose-6-Phosphate (G6P, from Sigma) to be added in the culture medium in order to activate their active transport into the bacterial cytosol via the phospho-sugar transporter UhpT. This was achieved by adding in the culture tube 2.5µL of a 10mM water solution of G6P (100µM final concentration).

[1] = tested on: E. coli C7 LPS heptosylation; assay: Inhibition of E. coli C7 LPS biosynthesis (LPS gel electrophoresis, silver staining); type: cell-based, E. coli C7 (018:K1:H7)
Description: Inhibition of E. coli C7 (018:K1:H7) LPS biosynthesis:
The inner core contains several heptose residues. An inhibitor of the LPS heptosylation pathway should therefore reduce dramatically the size of LPS from full-length to the so-called 'Re-LPS' limited to lipid A branched with 2 Kdo residues.
Bacterial culture: The effect of heptosylation inhibitors on E. coli LPS was assessed as described below. The compounds to be tested were prepared in deionised water/DMSO (50/50) solutions and added (25µL) in sterile culture microtubes. The strain used in this study was E. coli C7 (018:K1:H7). The bacteria were isolated on tryptic soy agar (TSA) over-night. […]
LPS extraction: Bacterial cultures were normalized via OD determination, pelleted and washed with 1ml Phosphate-Buffer-Saline (PBS). […] The resulting supernatant, containing LPS was finally analysed by SDS-PAGE electrophoresis. […]
Silver staining: Gels were incubated overnight in 5% acetic acid/40% ethanol/deionised water, treated by 1% periodic acid/5% acetic acid for 15min, washed 4 times for 10min in deionised water and finally incubated for 18min in the dark in a silver nitrate solution composed of 56ml NaOH 0.1N, 4ml ammoniac 33%, 45ml AgN03 5% (Tsai and Frasch) and 195 ml deionised water. […] Gels were finally washed in deionised water, numerized with a Samsung PL51 camera and analysed by ImageJ software. […]

HldE of E. coli, sequence (P76658 whole entry): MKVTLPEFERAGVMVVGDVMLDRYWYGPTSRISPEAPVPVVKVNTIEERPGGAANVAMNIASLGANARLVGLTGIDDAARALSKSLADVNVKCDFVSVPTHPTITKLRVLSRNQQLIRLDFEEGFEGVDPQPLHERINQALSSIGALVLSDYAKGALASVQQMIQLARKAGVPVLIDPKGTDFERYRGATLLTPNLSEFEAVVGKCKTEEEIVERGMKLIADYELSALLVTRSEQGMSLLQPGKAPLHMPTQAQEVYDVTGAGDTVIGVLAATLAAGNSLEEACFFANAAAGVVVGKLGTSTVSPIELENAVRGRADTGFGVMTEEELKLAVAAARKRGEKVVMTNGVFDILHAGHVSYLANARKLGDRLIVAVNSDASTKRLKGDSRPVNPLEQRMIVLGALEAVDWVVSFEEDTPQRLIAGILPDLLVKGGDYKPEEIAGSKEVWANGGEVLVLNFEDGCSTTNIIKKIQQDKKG

“7-O-phosphate-D-glycero-D-gluco-2-deoxy-2-amino-1-deoxy-heptopyranoside hydrochloride [Example 1]” gave an IC50 (HldE of E. coli) of less than 100 µM and an IC50 (GmhA of E. coli) of less than 100 µM.
With N[C@H]1C(O)O[C@H]([C@H](O)COP(=O)(O)O)[C@@H](O)[C@@H]1O (stereo partly drawn) [Example 2, 7-O-phosphate-D-glycero-D-gluco-2-deoxy-2-amino-heptopyranoside hydrochloride] the “killing of the bacteria” value (E. coli C7 (018:K1:H7)) was “did not kill the bacteria”, the IC50 (HldE of E. coli) was less than 100 µM and the “reducing LPS heptosylation” value ([1]; in absence of G6P) was “inactive”. For the same compound, the “inhibition of E. coli C7 LPS heptosylation” value ([1]; in the presence of 100 µM G6P, at concentrations < 1 mM) was “at least 50%” and the IC50 (GmhA of E. coli) was less than 100 µM.

— EP2669288A1, “New monosaccharide derivatives and biological applications thereof” (L[…], priority 2012, dated 2013)
